Data published in patent publication US20240115654A1, “INTRAVENOUS ADMINISTRATION OF ENGINEERED ANTIMICROBIAL AMPHIPHILIC PEPTIDES” (priority 2021, published 2024).
Read-outs that look alike come from different tables or passages of the source. Peptide text beside a SMILES is read from it.

Description: All subjects who met eligibility criteria were confined to the clinical research unit from […] through Day 3. At admission, physical examination, vital signs, 12 lead ECG and weight were obtained, medical and medication history were updated if necessary, safety blood tests (hematology and chemistry), urinalysis, urine drug screen and an alcohol breath test were repeated and a urine pregnancy test was done for women of childbearing potential.
At each dose level, there were 2 sentinel subjects, (1 active, 1 placebo), who were dosed at least 48 hours in advance of the other subjects in their respective group. Following review of safety data, including physical examination, vital signs, and review of adverse events from the first 2 subjects, enrolment in the cohort continued.
A 12-lead ECG was performed on Day 1, within 60 minutes of infusion start (in triplicate), mid-way through the infusion, at the completion of the infusion, 30 minutes after completion of the infusion and at various timepoints following the end of the infusion.
Vital signs were recorded within 60 minutes pre-dose, at the mid-point of the infusion and post dose vitals were assessed at completion of the infusion, 0.5, 1, 2, 3, 4, 6, 9, 12, 24 and 48 hours post dose, after at least 3 minutes of rest in supine position.
Subjects returned to the study center 7 days after dosing, for the termination visit. A full physical examination, vital signs and weight were obtained, concomitant medications were updated if necessary, safety blood specimens (haematology and chemistry, PT and aPTT) and urine were collected for urinalysis and urine drug screening. A serum pregnancy test was done for women of childbearing potential and a 12-lead ECG was performed.
In this study dose limiting toxicity (DLT) was defined as any drug related ≥Grade 3 AEs occurring despite optimal therapeutic interventions (which included but were not limited to allergic/hypersensitivity reactions, dermatological reactions/infusion site reactions, haematological toxicities such as neutropenia, thrombocytopenia and anaemia and clinical chemistry abnormalities) experienced up to Day 7 (Termination Visit).
(§1) All subjects who received any amount of study drug were included in the safety analysis (Safety population).
The study was a double blinded, randomized, placebo-controlled study. The placebo administered was 0.9% sodium chloride.
On Day 1 (day of dosing), subjects were randomly assigned either peptide IV or Placebo IV. At each dose level, there were 2 sentinel subjects, (1 active, 1 placebo), who were dosed at least 48 hours in advance of the other subjects in their respective group. Following review of safety data, including physical examination, vital signs, and review of adverse events from the first 2 subjects, enrolment in the cohort continued. All subjects who met eligibility criteria were confined to the clinical research unit from Day −2 through Day 3. At admission, physical examination, vital signs, 12 lead ECG and weight were obtained, medical and medication history were updated if necessary, safety blood tests (hematology and chemistry), urinalysis, urine drug screen and an alcohol breath test were repeated and a urine pregnancy test was done for women of childbearing potential.
as §1

[1] = Cohort 5: 1 mg/kg IV 4-hr infusion (N = 6)
[2] = Cohorts 1-5, comparing dose level, infusion time, placebo and active

Q: With CC(C)[C@H](NC(=O)[C@H](Cc1c[nH]c2ccccc12)NC(=O)[C@H](CCCNC(=N)N)NC(=O)[C@H](CCCNC(=N)N)NC(=O)[C@@H](NC(=O)[C@@H](NC(=O)[C@H](CCCNC(=N)N)NC(=O)[C@@H](NC(=O)[C@@H](NC(=O)[C@H](CCCNC(=N)N)NC(=O)[C@H](CCCNC(=N)N)NC(=O)[C@H](Cc1c[nH]c2ccccc12)NC(=O)[C@@H](NC(=O)[C@H](CCCNC(=N)N)NC(=O)[C@H](CCCNC(=N)N)NC(=O)[C@@H](NC(=O)[C@H](CCCNC(=N)N)NC(=O)[C@H](CCCNC(=N)N)NC(=O)[C@@H](NC(=O)[C@H](Cc1c[nH]c2ccccc12)NC(=O)[C@H](CCCNC(=N)N)NC(=O)[C@@H](N)CCCNC(=N)N)C(C)C)C(C)C)C(C)C)C(C)C)C(C)C)C(C)C)C(C)C)C(=O)N[C@@H](CCCNC(=N)N)C(=O)N[C@@H](CCCNC(=N)N)C(N)=O [SEQ ID NO: 1] (H-RRWVRRVRRVWRRVVRVVRRWVRR-NH2) as the molecule, how does the “Treatment-related TEAE: Blood and Lymphatic System Disorders, participants n (%)” value [1] read?
A: 0

Q: What about the “Treatment-related TEAE: Constipation, participants n (%)” value [1] of the same molecule?
A: 0

Q: And the “Treatment-related TEAE: Diarrhea, participants n (%)” value [1]?
A: 0

Q: What about the “Treatment-related TEAE: Dizziness, occurrences m” value [1] of the same molecule?
A: 1

Q: And the “Treatment-related TEAE: Dizziness, participants n (%)” value [1]?
A: 1 (16.7%)

Q: What about the “Treatment-related TEAE: Feeling hot, participants n (%)” value [1] of the same molecule?
A: 0

Q: What about the “Treatment-related TEAE: Gastrointestinal Disorders, occurrences m” value [1] of the same molecule?
A: 1

Q: What about the “Treatment-related TEAE: Gastrointestinal Disorders, participants n (%)” value [1] of the same molecule?
A: 1 (16.7%)

Q: What about the “Treatment-related TEAE: General Disorders and Administration Site Conditions, occurrences m” value [1] of the same molecule?
A: 7

Q: What about the “Treatment-related TEAE: General Disorders and Administration Site Conditions, participants n (%)” value [1] of the same molecule?
A: 6 (100%)

Q: What about the “Treatment-related TEAE: Headache, occurrences m” value [1] of the same molecule?
A: 1

Q: And the “Treatment-related TEAE: Headache, participants n (%)” value [1]?
A: 1 (16.7%)

Q: And the “Treatment-related TEAE: Infusion related reaction, participants n (%)” value [1]?
A: 0

Q: What about the “Treatment-related TEAE: Infusion site discomfort, occurrences m” value [1] of the same molecule?
A: 1

Q: What about the “Treatment-related TEAE: Infusion site discomfort, participants n (%)” value [1] of the same molecule?
A: 1 (16.7%)

Q: What about the “Treatment-related TEAE: Infusion site pain, occurrences m” value [1] of the same molecule?
A: 3

Q: And the “Treatment-related TEAE: Infusion site pain, participants n (%)” value [1]?
A: 3 (50.0%)

Q: What about the “Treatment-related TEAE: Infusion site reaction, occurrences m” value [1] of the same molecule?
A: 2

Q: What about the “Treatment-related TEAE: Infusion site reaction, participants n (%)” value [1] of the same molecule?
A: 2 (33.3%)

Q: And the “Treatment-related TEAE: Infusion site swelling, occurrences m” value [1]?
A: 1

Q: What about the “Treatment-related TEAE: Infusion site swelling, participants n (%)” value [1] of the same molecule?
A: 1 (16.7%)

Q: What about the “Treatment-related TEAE: Injury, Poisoning, and Procedural Complications, participants n (%)” value [1] of the same molecule?
A: 0

Q: What about the “Treatment-related TEAE: Macule, occurrences m” value [1] of the same molecule?
A: 1

Q: What about the “Treatment-related TEAE: Macule, participants n (%)” value [1] of the same molecule?
A: 1 (16.7%)

Q: And the “Treatment-related TEAE: Musculoskeletal and Connective Tissue Disorders, participants n (%)” value [1]?
A: 0

Q: What about the “Treatment-related TEAE: Myalgia, participants n (%)” value [1] of the same molecule?
A: 0

Q: What about the “Treatment-related TEAE: Nervous system disorders, occurrences m” value [1] of the same molecule?
A: 2

Q: And the “Treatment-related TEAE: Nervous system disorders, participants n (%)” value [1]?
A: 2 (33.3%)

Q: What about the “Treatment-related TEAE: Oropharyngeal pain, participants n (%)” value [1] of the same molecule?
A: 0

Q: What about the “Treatment-related TEAE: Orthostatic hypotension, participants n (%)” value [1] of the same molecule?
A: 0

Q: And the “Treatment-related TEAE: Phlebitis, participants n (%)” value [1]?
A: 0

Q: And the “Treatment-related TEAE: Respiratory, Thoracic, and Mediastinal disorders, participants n (%)” value [1]?
A: 0

Q: And the “Treatment-related TEAE: Skin and Subcutaneous Tissue Disorders, occurrences m” value [1]?
A: 1

Q: And the “Treatment-related TEAE: Skin and Subcutaneous Tissue Disorders, participants n (%)” value [1]?
A: 1 (16.7%)

Q: And the “Treatment-related TEAE: Thrombocytopenia, participants n (%)” value [1]?
A: 0

Q: What about the “Treatment-related TEAE: Vascular Disorders, participants n (%)” value [1] of the same molecule?
A: 0

Q: What about the “Treatment-related TEAE: Vessel puncture site erythema, participants n (%)” value [1] of the same molecule?
A: 0

Q: What about the “Treatment-related TEAE: Vessel puncture site pain, participants n (%)” value [1] of the same molecule?
A: 0

Q: What about the “Treatment-related TEAE: Vomiting, occurrences m” value [1] of the same molecule?
A: 1

Q: And the “Treatment-related TEAE: Vomiting, participants n (%)” value [1]?
A: 1 (16.7%)

Q: And the “adverse events judged Grade 3 or higher” value (Cohorts 1-4)?
A: none

Q: What about the “changes in laboratory parameters” value (Cohorts 1-4) of the same molecule?
A: No clinically significant changes

Q: What about the “related IRRs, events” value (Cohorts 1-4) of the same molecule?
A: 13

Q: And the “serious adverse events (SAEs) or deaths” value (Cohorts 1-4)?
A: no reports

Q: What about the “subjects with related IRRs” value (Cohorts 1-4) of the same molecule?
A: 7

Q: And the “subjects with study drug infusion interrupted” value (Cohorts 1-4)?
A: 3

Q: And the “subjects with at least one TEAE” value (Cohorts 1-4 (0.05-0.5 mg/kg IV), 29 subjects in the SEQ ID NO: 1 arm)?
A: 25 (86.2%) subjects (%)

Q: What about the “TEAEs in SOC General disorders and administration site conditions” value (Cohorts 1-4, 29 subjects) of the same molecule?
A: 24.1%

Q: What about the “TEAEs in SOC Injury, poisoning, and procedural complication” value (Cohorts 1-4, 29 subjects) of the same molecule?
A: 48.3%

Q: And the “Vascular access site pain” value (Cohorts 1-4, 29 subjects)?
A: 34.5%

Q: And the “subjects reporting Grade 2 TEAEs” value (Cohorts 1-4, 29 subjects)?
A: 13.8%

Q: And the “subjects with treatment related-TEAEs” value (Cohorts 1-4, 29 subjects)?
A: 24.1%

Q: What about the “total TEAEs reported” value (Cohorts 1-4, 29 subjects in the SEQ ID NO: 1 arm) of the same molecule?
A: 52

Q: And the “AEs judged Grade 3 or higher” value (Cohorts 1-5)?
A: none

Q: What about the “serious TEAEs” value (Cohorts 1-5) of the same molecule?
A: no reports

Q: What about the “treatment-emergent DLTs” value (Cohorts 1-5) of the same molecule?
A: no reports

Q: And the “TEAEs in SOC General disorders and administration site conditions” value (Cohorts 1-5, 35 participants)?
A: 37.1%

Q: And the “TEAEs in SOC Injury, Poisoning, and Procedural Complications” value (Cohorts 1-5, 35 participants)?
A: 51.4%

Q: And the “participants with at least 1 TEAE deemed related to treatment” value (Cohorts 1-5, 35 participants)?
A: 37.1%

Q: What about the “participants with at least 1 TEAE leading to study drug discontinuation” value (Cohorts 1-5, 35 participants) of the same molecule?
A: 5.7%

Q: What about the “total TEAE events” value (Cohorts 1-5, 35 participants) of the same molecule?
A: 72

Q: What about the “Vascular access site pain” value (Cohorts 1-5, 35 participants (n=10)) of the same molecule?
A: 28.6%

Q: And the “Holter monitoring and electrocardiograms” value (Cohorts 1-5, by treatment assignment or dose level)?
A: no trends of concern

Q: What about the hematology and coagulation [2] of the same molecule?
A: no clinically significant patterns of change

Q: What about the serum chemistry [2] of the same molecule?
A: no clinically significant patterns of change

Q: What about the “participants with study drug infusion interrupted” value (Cohorts 1-5, of 47 participants, all in active treatment group) of the same molecule?
A: 8 (17.0%) participants (%)

Q: What about the “Participants Reporting at least One Related TEAE, %” value (Pooled SEQ ID NO: 1 (N = 29)) of the same molecule?
A: 24.1%

Q: What about the “Related TEAE Blood and lymphatic system disorders, n participants” value (Pooled SEQ ID NO: 1 (N = 29)) of the same molecule?
A: 0
